The record followed here is US20260138978A1, “POSITIVE ALLOSTERIC MODULATORS OF THE MUSCARINIC ACETYLCHOLINE RECEPTOR M1” (Vanderbilt University, priority 2022, published 2026).

Assay [1] addresses T1, human mAChRM1 (Homo sapiens, UniProt P11229).
T1 construct: host or cells: CHO-K1
T1 sequence (P11229 1-460): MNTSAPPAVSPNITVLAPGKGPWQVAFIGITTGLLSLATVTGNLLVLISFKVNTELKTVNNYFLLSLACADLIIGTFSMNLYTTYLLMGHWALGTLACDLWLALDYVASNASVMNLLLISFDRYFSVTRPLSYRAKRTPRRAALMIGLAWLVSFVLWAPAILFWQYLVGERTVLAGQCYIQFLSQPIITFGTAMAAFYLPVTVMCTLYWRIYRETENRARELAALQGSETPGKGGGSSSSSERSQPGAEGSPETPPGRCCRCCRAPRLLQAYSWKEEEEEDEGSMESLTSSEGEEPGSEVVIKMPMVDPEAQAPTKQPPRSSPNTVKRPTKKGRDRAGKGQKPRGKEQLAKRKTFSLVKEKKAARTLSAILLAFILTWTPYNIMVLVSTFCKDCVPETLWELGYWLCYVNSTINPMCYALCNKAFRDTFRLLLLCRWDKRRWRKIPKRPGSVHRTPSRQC
In words: mAChR M1 cell-based functional assay (calcium mobilization), agonist activity upon compound addition, Emax relative to acetylcholine maximum. The note with it: for Agonist Activity Human M1 EC50 / pEC50: calcium mobilization upon compound addition; for Emax: relative to the maximum for acetylcholine. In short, it runs like this:
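Emax is given as a percentage of the maximal acetylcholine response, from four-parameter curves of compound-evoked calcium mobilization. Human M1-transfected CHO-K1 cells carried Fluo-4 dye, and compound (11 concentrations, 1:3 steps) was applied at 4 s of a 300 s kinetic fluorescence recording.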

The target in assay [2] is T1, human mAChRM1. In words: mAChR M1 cell-based functional assay (calcium mobilization), positive allosteric modulator activity: increase in the EC20 acetylcholine response. Particulars: for Emax: PAM mode; for pEC50: increase in the EC20 acetylcholine response, read-out: PAM Activity Human M1 EC50; call rule not given here. In short, it runs like this: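 Potentiation is scored as the rise in an EC20 acetylcholine-evoked calcium signal across 11-point (1:3) compound series, fitted with a four-parameter logistic equation to give EC50 and Emax. Read-out is Fluo-4 fluorescence ratio in hM1-transfected CHO-K1 cells, measured kinetically on FDSS.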
(In general: Calcium flux is commonly read through the fluorescence of an indicator in the cells.)

pEC50: −log10 of the molar value.

Broadly, the Emax is the greatest response seen or fitted, relative to the assay's reference. As a reminder, the pEC50 is the EC50 on a negative log10 scale, so that one unit is a factor of ten. As for `CCC(O)(c1ccc(-c2cc(F)c(CN3Cc4ncccc4C3=O)c(F)c2)c2cn(C)nc12)C(F)(F)F` (stereo not drawn) [Compound 81, 6-(2,6-difluoro-4-(2-methyl-7-(1,1,1-trifluoro-2-hydroxybutan-2-yl)-2H-indazol-4-yl)benzyl)-6,7-dihydro-5H-pyrrolo[3,4-b]pyridin-5-one], on human mAChRM1 [1], the “Agonist Activity Human M1 EC50” value is “inactive”. Further, on human mAChRM1 [2], the Emax turned out to be 71% and the pEC50 is 5.35.
Turning to `Cn1cc2c(-c3cc(F)c(CN4Cc5cccnc5C4=O)c(F)c3)ccc(C(C)(C)O)c2n1` [Compound 121, 6-(2,6-difluoro-4-(7-(2-hydroxypropan-2-yl)-2-methyl-2H-indazol-4-yl)benzyl)-5,6-dihydro-7H-pyrrolo[3,4-b]pyridin-7-one], at human mAChRM1 [1], the pEC50 was not above 5.00 and the Emax worked out at 22%. Further, at human mAChRM1 [2], the maximal response (Emax) was found to be 88% and the pEC50 was 6.70.
On the same counts, the results for `Cc1cc(-c2ccc(C(C)(C)O)c3nn(C)cc23)cc(F)c1CN1Cc2cccc(F)c2C1=O` [Compound 162, 7-fluoro-2-(2-fluoro-4-(7-(2-hydroxypropan-2-yl)-2-methyl-2H-indazol-4-yl)-6-methylbenzyl)isoindolin-1-one] are not above 5.00, 19%, 75% and 6.69.
Regarding `Cc1cc(-c2ccc(C(C)(C)O)cc2)ccc1CN1Cc2ncccc2C1=O` [Compound 12, 6-((4′-(2-hydroxypropan-2-yl)-3-methyl-[1,1′-biphenyl]-4-yl)methyl)-6,7-dihydro-5H-pyrrolo[3,4-b]pyridin-5-one], the “Agonist Activity Human M1 EC50” value at human mAChRM1 [1] was “inactive”. On human mAChRM1 [2], the Emax was found to be 70% and the pEC50 is 5.23.
On to `CC(C)(O)c1cc(-c2cc(F)c(CN3Cc4ncccc4C3=O)c(F)c2)c2[nH]nnc2c1` [Compound 83, 6-(2,6-difluoro-4-(5-(2-hydroxypropan-2-yl)-1H-benzo[d][1,2,3]triazol-7-yl)benzyl)-6,7-dihydro-5H-pyrrolo[3,4-b]pyridin-5-one], for which the “Agonist Activity Human M1 EC50” value on human mAChRM1 [1] was “inactive”. Also, on human mAChRM1 [2], the Emax amounted to 39% and the pEC50 is not above 5.00.
For `Cn1cc2c(C(C)(C)O)cc(-c3cc(F)c(CN4Cc5ncccc5C4=O)c(F)c3)cc2n1` [Compound 19, 6-(2,6-difluoro-4-(4-(2-hydroxypropan-2-yl)-2-methyl-2H-indazol-6-yl)benzyl)-6,7-dihydro-5H-pyrrolo[3,4-b]pyridin-5-one], on human mAChRM1 [1], the “Agonist Activity Human M1 EC50” value was “inactive”. On human mAChRM1 [2], the Emax was found to be 50% and the pEC50 was not above 5.00.
As for `Cn1cc2c(-c3cc(F)c(CN4Cc5ncncc5C4=O)c(F)c3)ccc(C(C)(C)O)c2n1` [Compound 139, 6-(2,6-difluoro-4-(7-(2-hydroxypropan-2-yl)-2-methyl-2H-indazol-4-yl)benzyl)-6,7-dihydro-5H-pyrrolo[3,4-d]pyrimidin-5-one], on human mAChRM1 [1], the pEC50 is 5.42 and the Emax was determined as 46%. On human mAChRM1 [2], the Emax turned out to be 87% and the pEC50 was 7.10.
Consider `Cn1cc2c(-c3ccc(CN4Cc5ncccc5C4=O)nn3)ccc(C(C)(C)O)c2n1` [Compound 112, 6-((6-(7-(2-hydroxypropan-2-yl)-2-methyl-2H-indazol-4-yl)pyridazin-3-yl)methyl)-6,7-dihydro-5H-pyrrolo[3,4-b]pyridin-5-one], for which the “Agonist Activity Human M1 EC50” value at human mAChRM1 [1] is “inactive”. Also, on human mAChRM1 [2], the Emax stood at 27% and the pEC50 was not above 5.00.
`CCn1cc2c(-c3cc(F)c(CN4Cc5ncccc5C4=O)c(F)c3)ccc(C(C)(C)O)c2n1` [Compound 99, 6-(4-(2-ethyl-7-(2-hydroxypropan-2-yl)-2H-indazol-4-yl)-2,6-difluorobenzyl)-6,7-dihydro-5H-pyrrolo[3,4-b]pyridin-5-one]: at human mAChRM1 [1], the negative-log EC50 (pEC50) was 5.39 and the Emax came out at 13%. Also, on human mAChRM1 [2], the Emax came to 85% and the pEC50 was 6.75.
As for `Cn1nc(-c2cc(F)c(CN3Cc4ncccc4C3=O)c(F)c2)c2ccc(C(C)(C)O)cc21` [Compound 52, 6-(2,6-difluoro-4-(6-(2-hydroxypropan-2-yl)-1-methyl-1H-indazol-3-yl)benzyl)-6,7-dihydro-5H-pyrrolo[3,4-b]pyridin-5-one], the “Agonist Activity Human M1 EC50” value at human mAChRM1 [1] is “inactive”. Besides, at human mAChRM1 [2], the Emax is 58% and the pEC50 was 5.02.
On the same counts, the results for `Cn1nc2cc(C(C)(C)O)ccc2c1-c1cc(F)c(CN2Cc3ncccc3C2=O)c(F)c1` [Compound 51] are “inactive”, 30% and not above 5.00.
On the same counts, the results for `CC(C)(O)c1ccc(-c2cc(F)c(CN3Cc4ncccc4C3=O)c(F)c2)c2ccccc12` [Compound 71, 6-(2,6-difluoro-4-(4-(2-hydroxypropan-2-yl)naphthalen-1-yl)benzyl)-6,7-dihydro-5H-pyrrolo[3,4-b]pyridin-5-one] are “inactive”, 64% and not above 5.00.
As for `Cn1cc2c(-c3cc(F)c(CN4Cc5cccc(F)c5C4=O)c(F)c3)ccc(C(C)(O)C(F)F)c2n1` (stereo not drawn) [Compound 158, 2-(4-(7-(1,1-difluoro-2-hydroxypropan-2-yl)-2-methyl-2H-indazol-4-yl)-2,6-difluorobenzyl)-7-fluoroisoindolin-1-one], on human mAChRM1 [1], the “Agonist Activity Human M1 EC50” value was “inactive”. On human mAChRM1 [2], the Emax is 77% and the negative logarithm of the EC50 (pEC50) is 6.35.
With `[2H]C1([2H])c2ncccc2C(=O)N1Cc1c(F)cc(-c2ccc(C(C)(C)O)c3nn(C([2H])([2H])[2H])cc23)cc1F` [Compound 145, 6-(2,6-difluoro-4-(7-(2-hydroxypropan-2-yl)-2-(methyl-d3)-2H-indazol-4-yl)benzyl)-6,7-dihydro-5H-pyrrolo[3,4-b]pyridin-5-one-7,7-d2], on human mAChRM1 [1], the pEC50 is 5.42 and the Emax turned out to be 12%. For the same molecule, at human mAChRM1 [2], the Emax was found to be 62% and the pEC50 is 6.84.
Turning to `Cn1ncc2c(-c3cc(F)c(CN4Cc5cccc(F)c5C4=O)c(F)c3)ccc(C(C)(C)O)c21` [Compound 157, 2-(2,6-difluoro-4-(7-(2-hydroxypropan-2-yl)-1-methyl-1H-indazol-4-yl)benzyl)-7-fluoroisoindolin-1-one], the “Agonist Activity Human M1 EC50” value at human mAChRM1 [1] is “inactive”. On human mAChRM1 [2], the Emax was found to be 61% and the pEC50 is not above 5.00.
The like results for `CC(C)n1cc2c(-c3cc(F)c(CN4Cc5ncccc5C4=O)c(F)c3)ccc(C(C)(C)O)c2n1` [Compound 104, 6-(2,6-difluoro-4-(7-(2-hydroxypropan-2-yl)-2-isopropyl-2H-indazol-4-yl)benzyl)-6,7-dihydro-5H-pyrrolo[3,4-b]pyridin-5-one] were, in that order, “inactive”, 86% and 6.55.
As to `Cn1cc2cc(-c3cc(F)c(CN4Cc5cccc(F)c5C4=O)cc3F)cc(C(C)(C)O)c2n1` [Compound 169, 2-(2,5-difluoro-4-(7-(2-hydroxypropan-2-yl)-2-methyl-2H-indazol-5-yl)benzyl)-7-fluoroisoindolin-1-one], on human mAChRM1 [1], the “Agonist Activity Human M1 EC50” value was “inactive”. At human mAChRM1 [2], the Emax came out at 76% and the pEC50 is 6.23.
For the molecule `Cc1cc(-c2ccc(C(C)(C)O)c3nn(C)cc23)cc(F)c1CN1Cc2ncccc2C1=O` [Compound 2, 6-(2-Fluoro-4-(7-(2-hydroxypropan-2-yl)-2-methyl-2H-indazol-4-yl)-6-methylbenzyl)-6,7-dihydro-5H-pyrrolo[3,4-b]pyridin-5-one], on human mAChRM1 [1], the pEC50 was 5.08 and the maximal response (Emax) turned out to be 33%. Moreover, on human mAChRM1 [2], the Emax is 87% and the pEC50 is 7.19.
On to `Cn1cc2c(-c3ccc(CN4Cc5cccnc5C4=O)cc3)ccc(C(C)(C)O)c2n1` [Compound 131, 6-(4-(7-(2-hydroxypropan-2-yl)-2-methyl-2H-indazol-4-yl)benzyl)-5,6-dihydro-7H-pyrrolo[3,4-b]pyridin-7-one], for which the “Agonist Activity Human M1 EC50” value at human mAChRM1 [1] was “inactive”. Further, at human mAChRM1 [2], the Emax stood at 92% and the pEC50 was 6.08.
On the same counts, the results for `Cn1cc2cc(-c3ccc(CN4Cc5cccc(F)c5C4=O)c(F)c3F)cc(C(C)(C)O)c2n1` [Compound 170, 2-(2,3-difluoro-4-(7-(2-hydroxypropan-2-yl)-2-methyl-2H-indazol-5-yl)benzyl)-7-fluoroisoindolin-1-one] are “inactive”, 71% and 5.71.
The like results for `Cc1cc(-c2cc(C(C)(C)O)c3nn(C)cc3c2)cc(F)c1CN1Cc2ncccc2C1=O` [Compound 50, 6-(2-fluoro-4-(7-(2-hydroxypropan-2-yl)-2-methyl-2H-indazol-5-yl)-6-methylbenzyl)-6,7-dihydro-5H-pyrrolo[3,4-b]pyridin-5-one] were, in that order, “inactive”, 66% and 6.11.
